Results published in patent US11987804B2, “Rapamycin resistant cells” (Seattle Children's Hospital, priority 2018, dated 2024).

Legend:
CD4+ T cells [1] = assay: Selective expansion of DISC/HA-FOXP3 edited Treg cells (flow cytometry for HA tag and FOXP3); format: cell-based, human; details: 50 ng/mL IL-2, 10 nM Rapamycin or 100 nM AP21967
Text: This Example illustrates the use of gene editing technology to knock-in a construct encoding the DISC and a promoter upstream of the endogenous FOXP3 (Forkhead box P3) locus in CD4+ T cells. […] In brief, a CRISPR/CAS9 ribonucleoprotein containing a guide RNA (gRNA) specific for a locus 5′ of exon 1 of FOXP3 was used in combination with an adeno-associated virus 6 (AAV6) donor template for FOXP3 gene editing The gRNA included a spacer having the sequence of SE ID NO:58. An ectopic MND promoter was introduced to drive DISC expression upstream of endogenous FOXP3. Expression of FOXP3 was designed to be in-frame with an N-terminal hemagglutinin (HA) epitope tag and nuclear localization sequence to generate a chimeric protein.

[2] = system: primary human CD4+ T cells; assay: Three-phase expansion protocol for μDISC edTreg (flow cytometry HA/FOXP3, cell counts); format: cell-based; details: for Day-3 flow cytometry Q4 / Day-10 flow cytometry Q3 / Day-10 flow cytometry Q4 / Day-15 flow cytometry Q4: Expansion Phase 0 additive 50 μg/mL IL-2, 10 nM rapamycin or 100 nM AP21967; for Day-3 flow cytometry Q1 / Day-10 flow cytometry Q1 / Day-15 flow cytometry Q1: Q1 = HA- FOXP3+; for Day-10 flow cytometry Q3 / Day-10 flow cytometry Q4 / Day-10 flow cytometry Q1: after Expansion Phase 1; for Day-15 flow cytometry Q4 / Day-15 flow cytometry Q3 / Day-15 flow cytometry Q1: after Expansion Phase 2
Experimental: Recovered cells after Expansion Phase 0 were then transferred to the G-Rex flask and expanded in rapamycin (Expansion Phase 1; Days 3-10) to allow DISC edTreg enrichment, followed by addition of anti-CD3/CD28 beads (Expansion Phase 2; Days 10-15). The same AAV construct as shown in FIG. 13A was used in this experiment.
After Expansion Phase 1 (Day 10), successfully edited cells were assessed by flow cytometry.

CD4+ T cells [3] = assay: Regulatory T cell marker phenotype of DISC-expressing edited Treg cells; format: cell-based, human; details: IL-2 50 ng/mL, rapamycin 10 nM or AP21967 100 nM
μDISC GFP edTreg = assay: In vivo expansion of μDISC GFP edTreg by rapamycin in humanized mouse model; parameters: species or system NOD-scid-IL2RgNULL (NSG) mice; details: for CD25+ GFP+ edTreg cells / CD25− GFP+ edTreg cells / CD127+ GFP+ edTreg cells / CD127− GFP+ edTreg cells: peripheral blood seven days post-transfer, rapamycin 0.1 mg/kg i.p. every other day, representative mouse
Experimental: This Example describes experiments performed to test the capacity of edTreg cells expressing a μDISC construct to be expanded in vivo by rapamycin treatment. […] There are also conditions under which it is not desirable to expand Tregs, for example, in some cases of infection. Therefore, a useful feature of engineered cells provided herein having Treg features is the ability to exert control on expansion in vivo. Experiments were carried out to determine whether rapamycin could increase the number of μDISC edTregs in vivo using a humanized mouse model, which included human cells transferred into immune-incompetent NOD-scid-IL2RgNULL (NSG) mice. For these experiments, cells were edited using an AAV donor to drive cis-linked expression of the μDISC and endogenous FOXP3 from the MND promoter. This AAV donor template incorporates a GFP fusion protein at the N-terminal of endogenous FOXP3. The GFP-labeled FOXP3 fusion protein was used to facilitate the ability to detect gene-edited cells within the in vivo cell samples. […] The beads were then removed at Day −1. […] In the three-phase expansion protocol used in this experiment, the timing of Expansion Phase 0 flow cytometry was on Day 2. Recovered cells after Expansion Phase 0 were then transferred to the G-rex® flask and expanded in the presence of 10 nM rapamycin to select edited cells (Expansion Phase 1; Days 3-9) and to allow DISC edTreg enrichment, followed by flow cytometry and addition of anti-CD3/CD28 beads (Expansion Phase 2; Days 9-16; in the presence of 10 nM rapamycin). Flow cytometry was performed at Days 2, 9, 12, and 16 to monitor edited GFP+FOXP3+ cell expansion.
NSG mice were pre-treated with rapamycin in order to saturate rapamycin binding proteins and provide rapamycin in serum.
The μDISC GFP edTregs (or mock-edited cells) were then injected i.v. according to the following general procedure. Starting from Day −4, intraperitoneal (i.p.) injection of rapamycin 0.1 mg/kg was carried out every other day until Day 21. At Day 0, irradiation was performed and μDISC edTreg was i.v. injected. Peripheral blood samples were collected to either test for rapamycin levels (Day 2) or for flow cytometry (Days 7, 14, 21, and 28) to track the phenotype and number of transferred human T cells including GFP+ edTreg cells.
To illustrates expansion of μDISC GFP edTreg in rapamycin treated vs. vehicle, flow cytometry results from peripheral blood seven days post-transfer into NSG are shown in Table 11 below (Gate: live, hCD45+, hCD4+), where human T cell markers and GFP+ are shown for a representative mouse from each cohort.

[4] = Expansion Phase 0 additive, 10 nM rapamycin or 100 nM AP21967
[5] = peripheral blood Day 7 and Day 14, rapamycin treated vs. vehicle

Which results are given for `CO[C@H]1[C@@H](O)[C@H](C)C[C@H](C)/C=C/C=C/C=C(\C)[C@@H](c2c[nH]c3c(C)cccc23)C[C@@H]2CC[C@@H](C)[C@@](O)(O2)C(=O)C(=O)N2CCCC[C@H]2C(=O)O[C@H]([C@H](C)C[C@@H]2CC[C@@H](O)[C@H](OC)C2)C[C@H](O)[C@H](C)/C=C(\C)[C@H]1O` [AP21967, C-16-(S)-7-methylindolerapamycin]?
percentage of double positive cells (expressing HA-FOXP3), DISC/HA-FOXP3 (CD4+ T cells [1]; 7 day post-treatment): 45.7%; percentage of double positive cells (expressing HA-FOXP3), Mock (CD4+ T cells [1]; 7 day post-treatment): 0.033%; percentage of double positive cells (expressing HA-FOXP3), DISC/HA-FOXP3 (CD4+ T cells [1]; 15 day post-treatment): 82.1%; Day-3 flow cytometry Q4 [2]: 86.00%; Day-3 flow cytometry Q3 [2, 4]: 1.74%; Day-3 flow cytometry Q1 [2, 4]: 0.39%; Day-3 flow cytometry Q2 ([2]; Q2 = HA+ FOXP3+ successfully edited cells, Expansion Phase 0 additive, 10 nM rapamycin or 100 nM AP21967): 11.90%; Day-10 flow cytometry Q3 [2]: 5.54%; Day-10 flow cytometry Q4 [2]: 13.3%; Day-10 flow cytometry Q1 [2, 4]: 0.59%; Day-15 flow cytometry Q4 [2]: 10.7%; Day-15 flow cytometry Q3 [2, 4]: 4.93%; Day-15 flow cytometry Q1 [2, 4]: 0.33%; CD25+ FOXP3+ (CD4+ T cells [3]): 22.5%; CD25+ FOXP3− (CD4+ T cells [3]): 20.4%; CD 127+ FOXP3+ (CD4+ T cells [3]): 1.63%; CD 127+ FOXP3− (CD4+ T cells [3]): 40.3%; CTLA4+ FOXP3+ (CD4+ T cells [3]): 13.6%; CTLA4+ FOXP3− (CD4+ T cells [3]): 30.8%; ICOS+ FOXP3+ (CD4+ T cells [3]): 36.8%; ICOS+ FOXP3− (CD4+ T cells [3]): 2.99%; LAG3+ FOXP3+ (CD4+ T cells [3]): 8.81%; LAG3+ FOXP3− (CD4+ T cells [3]): 31.5%

For `CO[C@H]1C[C@@H]2CC[C@@H](C)[C@@](O)(O2)C(=O)C(=O)N2CCCC[C@H]2C(=O)O[C@H]([C@H](C)C[C@@H]2CC[C@@H](O)[C@H](OC)C2)CC(=O)[C@H](C)/C=C(\C)[C@@H](O)[C@@H](OC)C(=O)[C@H](C)C[C@H](C)/C=C/C=C/C=C/1C` [Rapamycin, (3S,6R,7E,9R,10R,12R,14S,15E,17E,19E,21S,23S,26R,27R,34aS)-9,10,12,13,14,21,22,23,24,25,26,27,32,33,34,34a-hexadecahydro-9,27-dihydroxy-3-[(1R)-2-[(1S,3R,4R)-4-hydroxy-3-methoxycyclohexyl]-1-methylethyl]-10,21-dimethoxy-6,8,12,14,20,26-hexamethyl-23,27-epoxy-3H-pyrido[2,1-c][1,4] oxaazacyclohentriacontine-1,5,11,28,29 (4H,6H,31H)-pentone], which CD25+ GFP+ edTreg cells (μDISC GFP edTreg; No Radiation) is on record?
The CD25+ GFP+ edTreg cells was 79.9%.

And the CD25− GFP+ edTreg cells (μDISC GFP edTreg; No Radiation)?
Its CD25− GFP+ edTreg cells is 8.37%.

And the “CD127+ GFP+ edTreg cells” value (μDISC GFP edTreg; No Radiation)?
Its value is 0.57.

What about the “CD127− GFP+ edTreg cells” value (μDISC GFP edTreg; No Radiation) of the same compound?
The value was 88.2.

What about the CD25+ GFP+ edTreg cells (μDISC GFP edTreg; Radiation (200 Gy), gate live, hCD45+, hCD4+) of the same compound?
The CD25+ GFP+ edTreg cells was 82.6%.

What about the CD25− GFP+ edTreg cells (μDISC GFP edTreg; Radiation (200 Gy)) of the same compound?
The CD25− GFP+ edTreg cells was 5.52%.

And the “CD127− GFP+ edTreg cells” value (μDISC GFP edTreg; Radiation (200 Gy))?
The value was 87.6.

And the “CD127+ GFP+ edTreg cells” value (μDISC GFP edTreg; Radiation)?
Its value is 0.50.

And the “number of GFP+ cells in serum sample” value (μDISC GFP edTreg; [5])?
Its value is “higher”.

What about the “percentage of GFP+ cells” value (μDISC GFP edTreg; [5]) of the same compound?
Its value is “higher”.

What about the “levels of μDISC GFP edTreg in the peripheral blood (FIG. 17)” value (μDISC GFP edTreg; tracked weekly for four weeks, rapamycin treated vs. untreated mice) of the same compound?
Its value is “higher levels of μDISC GFP edTreg at each time point, peaking between two and three weeks after cell transfer”.

And the “percentage of double positive cells (expressing HA-FOXP3), DISC/HA-FOXP3” value (CD4+ T cells [1]; 7 day post-treatment)?
The value was 47.6%.

What about the “percentage of double positive cells (expressing HA-FOXP3), Mock” value (CD4+ T cells [1]; 7 day post-treatment) of the same compound?
The value was 0.022%.

What about the “percentage of double positive cells (expressing HA-FOXP3), DISC/HA-FOXP3” value (CD4+ T cells [1]; 15 day post-treatment) of the same compound?
Its value is 85.6%.

And the “Day-3 flow cytometry Q4” value [2]?
Its value is 91.70%.

And the “Day-3 flow cytometry Q3” value [2, 4]?
Its value is 1.48%.

And the “Day-3 flow cytometry Q1” value [2, 4]?
The value was 0.38%.

And the “Day-10 flow cytometry Q3” value [2]?
Its value is 9.31%.

What about the “Day-10 flow cytometry Q4” value [2] of the same compound?
Its value is 20.1%.

And the “Day-10 flow cytometry Q1” value [2, 4]?
The value was 0.44%.

What about the “Day-15 flow cytometry Q4” value [2] of the same compound?
Its value is 15.7%.

And the “Day-15 flow cytometry Q3” value [2, 4]?
Its value is 7.56%.

And the “Day-15 flow cytometry Q1” value [2, 4]?
The value was 1.08%.

What about the “CD25+ FOXP3+” value (CD4+ T cells [3]) of the same compound?
The value was 28.9%.

And the “CD25+ FOXP3−” value (CD4+ T cells [3])?
Its value is 14.5%.

And the “CD 127+ FOXP3+” value (CD4+ T cells [3])?
Its value is 1.47%.

And the “CD 127+ FOXP3−” value (CD4+ T cells [3])?
Its value is 40.8%.

What about the “CTLA4+ FOXP3+” value (CD4+ T cells [3]) of the same compound?
The value was 15.5%.

What about the “CTLA4+ FOXP3−” value (CD4+ T cells [3]) of the same compound?
Its value is 29.4%.

And the “ICOS+ FOXP3+” value (CD4+ T cells [3])?
Its value is 38.2%.

What about the “ICOS+ FOXP3−” value (CD4+ T cells [3]) of the same compound?
The value was 2.38%.

What about the “LAG3+ FOXP3+” value (CD4+ T cells [3]) of the same compound?
The value was 7.86%.

And the “LAG3+ FOXP3−” value (CD4+ T cells [3])?
The value was 33.3%.
